According to patent publication US20220041588A1, “SUBSTITUTED IMIDAZO[1,2-A]PYRIDINE AND [1,2,4]TRIAZOLO[1,5-A]PYRIDINE COMPOUNDS AS RET KINASE INHIBITORS” (FOCHON PHARMACEUTICALS, LTD., priority 2018, published 2022):

tested on: TT (RET C634W) cells; experiment: Cell proliferation assay (MTS), TT cells; format: cell-based; settings: Homo sapiens, TT, 72 h, 72 h incubation, MTS readout
Method: MTS testing kit was purchased from Promega. The RPMI-1640, F12, F12K, Fetal bovine serum and Penicillin-Streptomycin were purchased from BI. Glutamine and Dimethyl sulfoxide (DMSO) were purchased from Sigma. TT cells were cultured in F12K supplemented with 10% FBS and LC-2/ad cells were cultured in HamF12: RPMI1640 (1:1) supplemented with 10% FBS and 2 mM Glutamine.
To investigate whether a compound is able to inhibit the activity of RET fusion and/or mutation in cells, a mechanism-based assay using TT (RET C634W) and LC-2/ad (CCDCl6-RET) cell lines was developed. In this assay, the inhibition of RET fusion and/or mutation was reflected by the inhibition of cell proliferation of TT and LC-2/ad cells. Cells were plated into 96-well plates at the optimized cell density (TT: 5000 cells/well; LC-2/ad: 5000 cells/well). Plates were incubated at 37° C., with 5% CO2 for 24 h. Compounds were serially diluted and added to the plates with the final concentrations as 10000, 3333.3, 1111.1, […], 123.5, 41.2, 13.7, 4.6 and 1.5 nM. Plates were incubated at 37° C., with 5% CO2 for 72 h. An aliquot of 20 μL MTS/100 μL medium mixture solution were added to each well and the plates were incubated for exactly 2 h. The reaction was stopped by adding 25 μL 10% SDS to each well. The absorbance was measured by a microplate reader at 490 nm and 650 nm (reference wavelength). IC50 was calculated using GraphPad Prism 5.0.

**Q.** `Cn1cc(-c2cc(-c3ccc(N4CCN(Cc5cc(F)ccc5F)CC4)nc3)n3c(C#N)cnc3c2)cn1` [Example 8, 5-(6-(4-(2,5-difluorobenzyl)piperazin-1-yl)pyridin-3-yl)-7-(1-methyl-1H-pyrazol-4-yl)imidazo[1,2-a]pyridine-3-carbonitrile] was tested. Which IC50 did it give?
**A.** 0.039 µM

**Q.** For `Cc1cccnc1CN1CCN(c2ccc(-c3cc(-c4cnn(C)c4)cc4ncc(C#N)n34)cn2)CC1` [Example 9, 7-(1-methyl-1H-pyrazol-4-yl)-5-(6-(4-((3-methylpyridin-2-yl)methyl)pi-perazin-1-yl)pyridin-3-yl)imidazo[1,2-a]pyridine-3-carbonitrile], which IC50 is on record?
**A.** 0.079 µM

**Q.** Which IC50 does the source give for `C[C@@H](C(=O)N1CCN(c2ccc(-c3cc(-c4cnn(C)c4)cc4ncc(C#N)n34)cn2)CC1)c1ccccc1` [Example 10, (R)-7-(1-methyl-1H-pyrazol-4-yl)-5-(6-(4-(2-phenylpropanoyl)piperazin-1-yl)pyridin-3-yl)imidazo[1,2-a]pyri-dine-3-carbonitrile] here?
**A.** 0.006 µM

**Q.** How did the IC50 turn out when `COc1ccc(CN2CCN(c3ccc(-c4nc(-c5cnn(C)c5)cc5ncc(C#N)n45)cn3)CC2)nc1` [Example 24, 5-(6-(4-((5-methoxypyridin-2-yl)meth-yl)piperazin-1-yl)pyridin-3-yl)-7-(1-methyl-1H-pyrazol-4-yl)imidazo[1,2-c]pyrimidine-3-carbonitrile] was run?
**A.** 0.086 µM

**Q.** For `Cn1cc(-c2cc3ncc(C#N)n3c(-c3ccc(N4CCN(Cc5ccccc5)CC4)nc3)n2)cn1` [Example 25, 5-(6-(4-benzylpiperazin-1-yl)pyridin-3-yl)-7-(1-methyl-1H-pyrazol-4-yl) imidazo[1,2-c]pyrimidine-3-carbonitrile], which IC50 is on record?
**A.** 0.079 µM

**Q.** With `CN(C)c1ccc(CN2CCN(c3ccc(-c4cc(-c5cnn(C)c5)cc5ncc(C#N)n45)cn3)CC2)cn1` [Example 28, 5-(6-(4-((6-(dimethylamino)pyridin-3-yl)methyl)piperazin-1-yl)pyridin-3-yl)-7-(1-methyl-1H-pyrazol-4-yl)im-idazo[1,2-a]pyridine-3-carbonitrile] as the compound, how does the IC50 read?
**A.** 0.079 µM

**Q.** Which IC50 does the source give for `COc1ccccc1CN1CCN(c2ccc(-c3cc(-c4cnn(C)c4)cc4ncc(C#N)n34)cn2)CC1` [Example 29, 5-(6-(4-(2-methoxybenzyl)piperazin-1-yl)pyridin-3-yl)-7-(1-methyl-1H-pyrazol-4-yl)imidazo[1,2-a]pyridine-3-carbonitrile] here?
**A.** 0.084 µM

**Q.** How did the IC50 turn out when `Cn1cc(-c2cc(-c3ccc(N4CCN(Cc5c(F)cccc5F)CC4)nc3)n3c(C#N)cnc3c2)cn1` [Example 35, 5-(6-(4-(2,6-difluorobenzyl)piperazin-1-yl)pyridin-3-yl)-7-(1-methyl-1H-pyrazol-4-yl)imidazo[1,2-a]pyridine-3-carbonitrile] was run?
**A.** 0.001 µM

**Q.** How did the IC50 turn out when `Cn1cc(-c2cc(-c3ccc(N4CCN(Cc5ccc6ncn(C)c6c5)CC4)nc3)n3c(C#N)cnc3c2)cn1` [Example 36, 5-(6-(4-((1-methyl-1H-benzo[d]imid-azol-6-yl)methyl)piperazin-1-yl)pyri-din-3-yl)-7-(1-methyl-1H-pyrazol-4-yl)imidazo[1,2-a]pyridine-3-carboni-trile] was run?
**A.** 0.062 µM

**Q.** Which IC50 does the source give for `CN(C)[C@@H](C(=O)N1CCN(c2ccc(-c3cc(-c4cnn(C)c4)cc4ncc(C#N)n34)cn2)CC1)c1cccc(Cl)c1` [Example 39, (R)-5-(6-(4-(2-(3-chlorophenyl)-2-(dimethylamino)acetyl)piperazin-1-yl)pyridin-3-yl)-7-(1-methyl-1H-pyrazol-4-yl)imidazo[1,2-a]pyridine-3-car-bonitrile] here?
**A.** 0.039 µM

**Q.** How did the IC50 turn out when `CN(C)C(C(=O)N1CCN(c2ccc(-c3cc(-c4cnn(C)c4)cc4ncc(C#N)n34)cn2)CC1)c1ccc(F)c(Cl)c1` (centres unmarked) [Example 41, 5-(6-(4-(2-(3-chloro-4-fluorophenyl)-2-(dimethylamino)acetyl)piperazin-1-yl)pyridin-3-yl)-7-(1-methyl-1H-pyrazol-4-yl)imidazo[1,2-a]pyridine-3-carbonitrile] was run?
**A.** 0.012 µM

**Q.** How did the IC50 turn out when `Cc1ccc(CC(=O)N2CCN(c3ccc(-c4cc(-c5cnn(C)c5)cc5ncc(C#N)n45)cn3)CC2)nc1` [Example 47, 7-(1-methyl-1H-pyrazol-4-yl)-5-(6-(4-(2-(5-methylpyridin-2-yl)acetyl)pi-perazin-1-yl)pyridin-3-yl)imidazo[1,2-a]pyridine-3-carbonitrile] was run?
**A.** 0.088 µM

**Q.** With `COc1ccc(CN2C3CC2CN(c2ccc(-c4cc(OCCN=S(C)(C)=O)cc5ncc(C#N)n45)cn2)C3)cn1` [Example 58, 7-(2-((Dimethyl(oxo)-λ^6-sulfanylidene)amino)ethoxy)-5-(6-(6-((6-methoxypyridin-3-yl)methyl)-3,6-diazabicyclo[3.1.1]heptan-3-yl)pyridin-3-yl)imidazo[1,2-a]pyridine-3-carbonitrile] as the compound, how does the IC50 read?
**A.** 0.12 µM

**Q.** How did the IC50 turn out when `[2H]C([2H])([2H])Oc1ccc(OC2CCN(c3ccc(-c4cc(OCC(C)(C)O)cc5ncc(C#N)n45)cn3)CC2)cn1` [Example 61, 7-(2-Hydroxy-2-methylpropoxy)-5-(6-(4-((6-(methoxy-d3)pyridin-3-yl)oxy)piperidin-1-yl)pyridin-3-yl)imidazo[1,2-a]pyridine-3-carbonitrile] was run?
**A.** 0.015 µM

**Q.** With `COc1ccc(OC2CCN(c3ccc(-c4cc(OCCN=S(C)(C)=O)cc5ncc(C#N)n45)cn3)CC2)cn1` [Example 70, 7-(2-((dimethyl(oxo)-λ^6-sulfanylidene)ami-no)ethoxy)-5-(6-(4-((6-methoxypyridin-3-yl)oxy)piperidin-1-yl)pyridin-3-yl)imid-azo[1,2-a]pyridine-3-carbonitrile] as the compound, how does the IC50 read?
**A.** 0.071 µM

**Q.** `Cc1ccc(OC2CCN(c3ccc(-c4cc(OCC(C)(C)O)cc5ncc(C#N)n45)cn3)CC2)cn1` [Example 71, 7-(2-hydroxy-2-methylpropoxy)-5-(6-(4-((6-methylpyridin-3-yl)oxy)piperidin-1-yl)pyridin-3-yl)imidazo[1,2-a]pyridine-3-carbonitrile] was tested. Which IC50 did it give?
**A.** 0.022 µM

**Q.** With `CC(C)(O)COc1cc(-c2ccc(N3CCC(Oc4ccc(C5CC5)nc4)CC3)nc2)n2c(C#N)cnc2c1` [Example 72, 5-(6-(4-((6-cyclopropylpyridin-3-yl)oxy)piperidin-1-yl)pyridin-3-yl)-7-(2-hydroxy-2-methylpropoxy)imidazo[1,2-a]pyridine-3-carbonitrile] as the compound, how does the IC50 read?
**A.** 0.017 µM

**Q.** With `CCc1ccc(OC2CCN(c3ccc(-c4cc(OCC(C)(C)O)cc5ncc(C#N)n45)cn3)CC2)cn1` [Example 73, 5-(6-(4-((6-ethylpyridin-3-yl)oxy)piperidin-1-yl)pyridin-3-yl)-7-(2-hydroxy-2-meth-ylpropoxy)imidazo[1,2-a]pyridine-3-car-bonitrile] as the compound, how does the IC50 read?
**A.** 0.001 µM

**Q.** `Cc1ccc(OC2CCN(c3ccc(-c4cc(OCC5(O)CC5)cc5ncc(C#N)n45)cn3)CC2)cn1` [Example 74, 7-((1-hydroxycyclopropyl)methoxy)-5-(6-(4-((6-methylpyridin-3-yl)oxy)piperidin-1-yl)pyridin-3-yl)imidazo[1,2-a]pyridine-3-carbonitrile] was tested. Which IC50 did it give?
**A.** 0.023 µM

**Q.** Which IC50 does the source give for `CCc1ccc(OC2CCN(c3ccc(-c4cc(OCC5(O)CC5)cc5ncc(C#N)n45)cn3)CC2)cn1` [Example 75, 5-(6-(4-((6-ethylpyridin-3-yl)oxy)piperidin-1-yl)pyridin-3-yl)-7-((1-hydroxycyclo-propyl)methoxy)imidazo[1,2-a]pyridine-3-carbonitrile] here?
**A.** 0.001 µM
